Values of other authors, collected in patent US20090252647A1, “COMPOSITIONS AND METHODS FOR APPLYING ANTIMICROBIALS TO SUBSTRATES” (Crosstex International, Inc., priority 2008, published 2009).

CCCCCCCCCCCCCCCCCC[N+](C)(C)CCC[Si](O)(O)O.[Cl-] [3-(trihydroxysilyl)propyldimethyloctadecyl ammonium chloride]
solubility in water: approximately 15 % w/v
